Laboratory results: patent US20180106782A1, “HIGH THROUGHPUT CARDIOTOXICITY SCREENING PLATFORM” (The Board of Trustees of the Leland Stanford Junior …, priority 2016, published 2018)

Legend:
[1] = tested on: hiPSC-CMs; details: 1 μM isoproterenol (Yokoo 2009); cited from earlier work
[2] = tested on: CMs; details: 0.1 μM isoproterenol (Butler 2015); cited from earlier work
[3] = tested on: μpatterned hiPSC-CMs; assay: movement of LifeAct-labeled myofibrils in beating μpatterned hiPSC-CMs (cross-correlation, Ncorr); assay type: cell-based, human; details: for aδ (temporal asynchronicity) / d (displacement) / VR (peak velocity of relaxation) / VC (peak velocity of contraction) / aθ (spatial asynchronicity): LifeAct, single cell
Description: We fluorescently labeled actin with LifeAct in live hiPSC-CMs to image myofibrils and sarcomeres as described before. (Ribeiro 2015a) For this effect, we incubated hiPSC-CMs with the adenovirus rAV CAG-LifeAct-TagRFP (Ibidi; 1×10^5 IU/mL in cell-culture medium) overnight at 37° C. in a humid 5% CO2 atmosphere. We then washed cells once with PBS at 37° C. and added new medium. We observed actin labeled in sarcomeres after 2 days of adding the adenovirus to the culture medium. To induce contractile changes in hiPSC-CMs, we added drugs known to affect CM contractile machinery to the culture medium. We analyzed the mechanical output of cells after adding drugs. […] We exposed single cells to concentrations of 0.1 μM and then 1 μM of isoproterenol (Sigma, Saint Louis, Mo.) to test how the contractile activity of each cell varied after adding different amounts of isoproterenol to the medium. Omecamtiv mecarbil (Adooq Bioscience, Irvine, Calif.) was also added to the cell culture medium at 10 nM or 0.1 μM to detect different variations in the contractile response of hiPSC-CMs after adding one of these concentrations. We acquired videos of single beating hiPSC-CMs imaged with differential interference contrast microscopy at frame rates higher than 30 fps for a time between 4 and 10 s. We used MATLAB (R2014b version, Mathworks) to convert pixels of each frame to microns. Zeiss files (.czi) contained information on the pixel dimensions and were imported into MATLAB using the Bioformats package. ([…] 2010) We also confirmed the software calibration with calibration slides (Electron Microscopy Sciences). For each video of a beating single cell, we selected a region of interest (ROI) around the borders of the cell and analyzed average displacements within this ROI (FIG. 1B). For this purpose, we selected a baseline frame, within all the frames of the video, which represented the relaxed state of the cell and calculated average displacement within the ROI for the remaining frames relative to the baseline frame. As noted bellow, this procedure was automated. We then calculated displacements from microscopy videos with cross-correlation approaches: digital image correlation (DIC) and particle image velocimetry (PIV) approaches. […] Cross-correlation is done between sub-blocks of the image and the highest correlation indicates the maximum likelihood that blocks match. We tested the following cross-correlation algorithms: PIVIab, ImageJ PIV (Tseng 2012) and Ncorr. PIVIab and Ncorr were written in MATLAB, while ImageJ PIV is a plugin for ImageJ (NIH). Ncorr generally performs better, but uses more computational time. (Blaber 2015) We measured two parameters of asynchronicity of contractile movement within the ROI: spatial asynchronicity (aθ) of contractile movement and temporal asynchronicity (aδ) of contractile movement. Spatial synchronicity occurs when the different regions of the cell move along the same directions and temporal synchronicity occurs when all the regions of the cell move at the same time. To calculate aθ, we first computed the direction of movement (θ) for every movement vector of different regions i inside the ROI (FIG. 1B) at each frame as defined by The second approach performed better for analyzing sarcomere lengths in videos of LifeAct labeled beating cells. This approach was applied to different frames in a video to determine how the different properties measure with traction force microscopy or from cell movement related to sarcomere size, movement and orientation during the contractile cycle. Most of the tested approaches relied on successful skeletonization of each frame, which may not be perfect due to noise or inconsistent illumination. To quantitatively compare different skeletons from different frames in a video, we generated a master skeleton based on the skeletons generated from all frames. […]

[4] = tested on: μpatterned hiPSC-CMs; assay: as above; assay type: cell-based, human; details: 1 μM and 10 nM omecamtiv mecarbil (FIG. 11)

**Q.** Which beat rate [1] does the source give for `CC(C)NCC(O)c1ccc(O)c(O)c1` (stereo not shown) [isoproterenol] here?
**A.** The beat rate was “increase”.

**Q.** What about the mechanical output [1] of the same molecule?
**A.** The mechanical output was “decrease”.

**Q.** What about the “inotropic and chronotropic response in CMs” value [2] of the same molecule?
**A.** Its value is “positive inotropic and positive chronotropic responses”.

**Q.** And the “aδ (temporal asynchronicity)” value ([3]; ISO 0.1 (μM per FIG. 4), no ISO: 0.1)?
**A.** Its value is 0.31 s.

**Q.** What about the “d (displacement)” value ([3]; ISO 0.1 (μM per FIG. 4), no ISO: 1.22) of the same molecule?
**A.** Its value is 1.43 μm.

**Q.** What about the “VR (peak velocity of relaxation)” value ([3]; ISO 0.1 (μM per FIG. 4), no ISO: 2.54) of the same molecule?
**A.** The value was 3.45 μm/s.

**Q.** What about the “VC (peak velocity of contraction)” value ([3]; ISO 0.1 (μM per FIG. 4), no ISO: 2.63) of the same molecule?
**A.** Its value is 4.78 μm/s.

**Q.** What about the “aθ (spatial asynchronicity)” value ([3]; ISO 0.1 (μM per FIG. 4), no ISO: 55.4) of the same molecule?
**A.** The value was 19.5 °.

**Q.** What about the “aδ (temporal asynchronicity)” value ([3]; ISO 1 (μM per FIG. 4), no ISO: 0.1) of the same molecule?
**A.** Its value is 0.28 s.

**Q.** What about the “d (displacement)” value ([3]; ISO 1 (μM per FIG. 4), no ISO: 1.22) of the same molecule?
**A.** The value was 0.71 μm.

**Q.** And the “VR (peak velocity of relaxation)” value ([3]; ISO 1 (μM per FIG. 4), no ISO: 2.54)?
**A.** The value was 2.05 μm/s.

**Q.** What about the “VC (peak velocity of contraction)” value ([3]; ISO 1 (μM per FIG. 4), no ISO: 2.63) of the same molecule?
**A.** Its value is 2.02 μm/s.

**Q.** What about the “aθ (spatial asynchronicity)” value ([3]; ISO 1 (μM per FIG. 4), no ISO: 55.4) of the same molecule?
**A.** Its value is 20.8 °.

**Q.** With `COC(=O)N1CCN(Cc2cccc(NC(=O)Nc3ccc(C)nc3)c2F)CC1` [omecamtiv mecarbil] as the molecule, how does the “myofibril damage at other concentrations” value [4] read?
**A.** Its value is “Such level of damage was also observed”.

**Q.** And the “acute changes in sarcomere organization and movement” value ([3]; 0.1 μM omecamtiv mecarbil, acute, single cell (FIG. 6B))?
**A.** Its value is “oscillatory contractions of sarcomeres and overlap between sarcomeres”.

**Q.** What about the “chronic effects on the organization of myofibrils” value ([3]; 0.1 μM omecamtiv mecarbil, chronic, 2 minutes after adding (FIG. 6C)) of the same molecule?
**A.** Its value is “myofibril damaging”.

**Q.** What about the “acute values of dmax and br from myofibril movement” value ([3]; 0.1 μM omecamtiv mecarbil, single cell (FIG. 6F)) of the same molecule?
**A.** The value was “slightly increased”.

**Q.** What about the “acute VC and VR from myofibril movement” value ([3]; 0.1 μM omecamtiv mecarbil, single cell (FIG. 6G)) of the same molecule?
**A.** The value was “no considerable acute variations”.

**Q.** What about the “aδ (temporal asynchronicity)” value ([3]; OM 0.1 μM (FIG. 6), row 'acute', no OM: 0.05) of the same molecule?
**A.** Its value is 0.89 s.

**Q.** And the “d (displacement)” value ([3]; OM 0.1 μM (FIG. 6), row 'acute', no OM: 1.03)?
**A.** The value was 0.25 μm.

**Q.** And the “VR (peak velocity of relaxation)” value ([3]; OM 0.1 μM (FIG. 6), row 'acute', no OM: 2.2)?
**A.** Its value is 0.51 μm/s.

**Q.** And the “VC (peak velocity of contraction)” value ([3]; OM 0.1 μM (FIG. 6), row 'acute', no OM: 2.25)?
**A.** Its value is 0.54 μm/s.

**Q.** And the “aθ (spatial asynchronicity)” value ([3]; OM 0.1 μM (FIG. 6), row 'acute', no OM: 36.3)?
**A.** The value was 40.9 °.

**Q.** What about the “aδ (temporal asynchronicity)” value ([3]; OM 0.1 μM (FIG. 6), row 'chronic', no OM: 0.05) of the same molecule?
**A.** The value was 0.88 s.

**Q.** And the “d (displacement)” value ([3]; OM 0.1 μM (FIG. 6), row 'chronic', no OM: 1.03)?
**A.** The value was 0.93 μm.

**Q.** And the “VR (peak velocity of relaxation)” value ([3]; OM 0.1 μM (FIG. 6), row 'chronic', no OM: 2.2)?
**A.** Its value is 1.63 μm/s.

**Q.** And the “VC (peak velocity of contraction)” value ([3]; OM 0.1 μM (FIG. 6), row 'chronic', no OM: 2.25)?
**A.** Its value is 2.2 μm/s.

**Q.** What about the “aθ (spatial asynchronicity)” value ([3]; OM 0.1 μM (FIG. 6), row 'chronic', no OM: 36.3) of the same molecule?
**A.** The value was 17.1 °.
